Each block holds one compound with its values, some of them ahead of it.
How the values were obtained:
[1] = Aqueous solubility of ligand (stock solution preparation); type: physicochemical; conditions: stock solution could not be prepared
Protocol: Stock solutions of macropa and macropaquin were prepared in H2O. […] The exact ligand concentrations were determined from the potentiometric titration curves with KOH. Protonation equilibria of macropa^2− and macropaquin^2− were determined by adding standardized KOH to a solution (20 mL) containing ligand (˜0.02 mmol), 0.1 M HCl (0.1 mmol), and 1 M KCl (1.9 mmol). The titration method employed a 0.1 mV/min drift limit with a maximum wait time of 90 sec between addition of base and measurement. At least 70 data points were collected over the pH range of 2.5-10.5 (macropa) or 2.5-11.3 (macropaquin). The protonation constants, defined in Eq. 1, were calculated from the average of at least 4 independent titrations using the appropriate software.

[2] = literature values (footnotes b, c); cited from earlier work
[3] = Dissolution of barite ore in columns (ligand efficiency, GFAAS); conditions: ~48 mM ligand, soak 1 hour

- aqueous solubility [1]: poor aqueous solubility
Compound: O=S(=O)(O)c1ccc(O)c2nc(CN3CCOCCOCCN(Cc4ccc5c(S(=O)(=O)O)ccc(O)c5n4)CCOCCOCC3)ccc12 [macroquin-SO3, 2,2′-((1,4,10,13-tetraoxa-7,16-diazacyclooctadecane-7,16-diyl)bis(methylene))bis(8-hydroxyquinoline-5-sulfonic acid)]

Compound: O=C(O)CN1CCN(CC(=O)O)CCN(CC(=O)O)CCN(CC(=O)O)CC1 [DOTA, reference compound]
- log KBaL [2]: 11.75

Compound: O=C(O)c1cccc(CN2CCOCCOCCN(Cc3cccc(C(=O)O)n3)CCOCCOCC2)n1 [macropa, 6,6-((1,4,10,13-tetraoxa-7,16-diazacyclooctadecane-7,16-diyl)bis(methylene))dipicolinic acid]
- ligand efficiency (percent of ligand saturated with Ba^2+) ([3]; pH 8, barite 3 g): 40%
- ligand efficiency (percent of ligand saturated with Ba^2+) ([3]; pH 11, barite 3 g): 40%

From US11708283B2, “Metal-chelating compositions and their use in methods of removing or inhibiting barium scale” (CORNELL UNIVERSITY, priority 2018, dated 2023)
